# Data taken from patent publication US8946231B2, “P2X3, receptor antagonists for treatment of pain” (Merck Sharp & Dohme Corp., priority 2009, dated 2015).
# Molecular target: T1, human P2X3 (Homo sapiens, UniProt P56373)
# T1 construct: expressed in transfected cells
# T1 sequence (P56373 1-397): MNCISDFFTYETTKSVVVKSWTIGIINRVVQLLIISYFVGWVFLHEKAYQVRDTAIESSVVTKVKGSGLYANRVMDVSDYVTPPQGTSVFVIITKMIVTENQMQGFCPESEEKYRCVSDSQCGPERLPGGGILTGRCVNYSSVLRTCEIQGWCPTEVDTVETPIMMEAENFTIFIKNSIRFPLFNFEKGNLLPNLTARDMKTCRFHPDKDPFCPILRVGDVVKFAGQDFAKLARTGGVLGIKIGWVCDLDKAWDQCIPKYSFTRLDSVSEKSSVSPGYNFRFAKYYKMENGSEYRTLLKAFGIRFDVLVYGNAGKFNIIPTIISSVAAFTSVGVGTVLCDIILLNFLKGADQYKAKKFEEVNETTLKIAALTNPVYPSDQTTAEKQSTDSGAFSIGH
# Experiment: Intracellular Calcium Measurement to Assess Antagonist Affinity (FLIPR, Fluo-4)
# Type: cell-based
# Settings: cells expressing human P2X3; agonist α,β-meATP at EC50; antagonist added 10 min before agonist
# Excerpt: Generation of a Human P2X3 and P2X2/3 Stable Cell Line—Human P2X3 receptor cDNA (Accession number NM_002559) was subcloned as a 5′XhoI and 3′HindIII fragment into the expression vector pcDNA5/FRT (Invitrogen). Human P2X2 receptor cDNA (Accession number NM_174873) was subcloned as a 5′EcoRI and 3′NotI fragment into the expression vector pIRESneo2 (BD Biosciences Clontech). The human P2X3 expression construct was transfected using Lipofectamine 2000 (Invitrogen) into Ftp-in—293 cells (Invitrogen) according to the manufacturer's directions. Cells positive for flp-mediated recombination of […] P2X3 were selected using 150 μg/ml hygromycin. The stable human P2X3 cell line was co-transfected with the human P2X2 expression construct using Lipofectamine 2000 as above and co-transfected cells selected using […] hygromycin and 1 mg/ml G418. The stable P2X3 cell line was propagated in DMEM, 10% FBS, 100 μg/ml hygromycin, and 100 units/ml penicillin and 100 μg/ml streptomycin, and maintained at 37° and 95% humidity. The stable P2X213 cell line was propagated as above with the addition of 500 μg/ml G418.
# Intracellular Calcium Measurement to Assess Antagonist Affinity—A fluorescent imaging plate reader (FLIPR; Molecular Devices) was used to monitor intracellular calcium levels using the calcium-chelating dye Fluo-4 (Molecular Probes). The excitation and emission wavelengths used to monitor fluorescence were 488 nm and 530 nm, respectively. Cells expressing either human P2X3 or human P2X2/3 were plated at a density of 20,000 cells/well (20 μl/well) in 384-well black-walled plates approximately 20 hours before beginning the assay. […] During this period fluorescence data is collected at 3 sec intervals followed by 10 sec intervals. […] Following agonist addition fluorescence was measured at 5 sec intervals and analyzed based on the increase in peak relative fluorescence units (RFU) compared to the basal fluorescence. Peak fluorescence was used to determine the inhibitory effect at each concentration of antagonist by the following equation: % Inhibition=100*(1−((RFU(drug)−RFU(control)/(RFU(DMSO only)−RFU(control)))) In vitro Electrophysiological Assay—Cells expressing human P2X3 receptors were grown to a confluence of 65-85% 20 to 32 hours prior to assay. The cells were dissociated with trypsin, centrifuged, and resuspended in bath solution at a cell density of 1×10^6 cells/ml and loaded onto PatchXpress. The bath solution contained 150 mM NaCl, 4 mM KCl, 2 mM CaCl2, 1.2 mM MgCl2, 10 mM HEPES, and 11.1 mM glucose, at pH 7.2. […]
row,IC50,SMILES
1,84 nM,Cc1ccc(-c2nc(-c3ccccc3)c(C(=O)N[C@H](C)c3ccc(C(F)(F)F)[n+]([O-])c3)o2)nc1 [Example 2.5]
2,34 nM,CC(C)Cc1nn(-c2ccc(F)cn2)cc1C(=O)N[C@H](C)c1ccc(C(F)(F)F)[n+]([O-])c1 [Example 1.109]
3,53 nM,"C[C@@H](NC(=O)c1cn(-c2ccc(F)cn2)nc1-c1ccccc1)c1ccc(C(F)(F)F)[n+]([O-])c1 [Example 1.74, 1-(5-Fluoropyridin-2-yl)-N-{(1R)-1-[1-oxido-6-(trifluoromethyl)pyridin-3-yl]ethyl}-3-phenyl-1H-pyrazole-4-carboxamide]"
4,125 nM,C[C@@H](NC(=O)c1cn(-c2ccc(F)cn2)nc1-c1cnoc1)c1ccc(C(F)(F)F)[n+]([O-])c1 [Example 1.103]
